The nature of data set [1]: Drug conversion assessed as formation of oxazole derivatives in presence of Zn/HOAc. In kind it is physicochemical.
Another data set has as its system Salmonella typhimurium. In words: Mutagenicity in Salmonella typhimurium TA100. It counts as toxicity, organism-based. To be noted: salmonella enterica subsp. enterica serovar typhimurium.

Turning to `COc1cccc2c1cc([N+](=O)[O-])c1c(C(=O)O)cc3c(c12)OCO3` [ARISTOLOCHIC ACID], the Drug metabolism result in data set [1] is “Active”. Further, in the data set on Salmonella typhimurium, the Activity result is on record as “Toxic”.
